Each structure is given as a SMILES string. Calls of active or inactive are those of the source.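 How the source made its calls: active means fitted curve drops below -35% activity change at a concentration within twice the highest valid tested dose; inactive means activity opposite to the expected direction, or the rest.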

System in the first experiment: not listed separately
Put plainly: canonical NF-kB pathway blockers in HEK293 – cell-based, flow cytometry, eGFP/dsRED, dry powder, selectivity assay for LMP1 NF-kB inhibitor project, dose response (AID 652043). The note with it: HEK293 TNFa-induced NF-kB eGFP reporter, flow cytometry, 16 h; at 18 µM (top of the series).
Turning to `Cc1cc(C(=O)Nc2ccc3c(c2)C(=O)N(C)[C@@H]2CC[C@H](CC(=O)NCc4ccc(-c5ccccc5)cc4)O[C@H]2CO3)no1`, the activity change, negative = inhibition was -3.35% (inactive).

The experiment is the same for the next values; noted with them: HEK293 TNFa-induced NF-kB eGFP reporter, flow cytometry, 16 h; at 19.5 µM (top of the series).
With `CN(C)c1ccc2c(c1)[C@@H]1C[C@@H](CC(=O)NCc3ccncc3)O[C@@H](CO)[C@@H]1O2`, the activity change, negative = inhibition is 0.09% (inactive).

For the compound `CNC(=O)C[C@H]1CC[C@@H]2[C@H](COc3ccc(NC(=O)c4cc(C)on4)cc3C(=O)N2C)O1`, the activity change, negative = inhibition is -1.72% (inactive).

Take `CN(C)c1ccc2c(c1)[C@@H]1C[C@@H](CC(=O)NCc3ccc(Oc4ccccc4)cc3)O[C@@H](CO)[C@@H]1O2`: the activity change, negative = inhibition is -5.55% (inactive).

With `CCCNC(=O)C[C@H]1CC[C@@H]2[C@H](COc3ccc(NC(=O)c4cc(C)on4)cc3C(=O)N2C)O1`, the activity change, negative = inhibition was -2.12% (inactive).

For the compound `CN(C)c1ccc2c(c1)[C@@H]1C[C@@H](CC(=O)NCCc3ccccc3)O[C@@H](CO)[C@@H]1O2`, the activity change, negative = inhibition is -3.65% (inactive).

`COc1ccccc1CNC(=O)C[C@@H]1C[C@H]2c3cc(N(C)C)ccc3O[C@H]2[C@H](CO)O1`: the activity change, negative = inhibition is -11.3% (inactive).

For `CN1C(=O)c2cc(NS(C)(=O)=O)ccc2OC[C@@H]2O[C@@H](CC(=O)NCc3ccc(-c4ccccc4)cc3)CC[C@H]21`, the activity change, negative = inhibition was -0.9% (inactive).

For the compound `CN(C)c1ccc2c(c1)[C@@H]1C[C@@H](CC(=O)NCc3ccccn3)O[C@@H](CO)[C@@H]1O2`, the activity change, negative = inhibition is -11.4% (inactive).

As for `CN(C)c1ccc2c(c1)[C@@H]1C[C@@H](CC(=O)NCc3ccc4c(c3)OCO4)O[C@@H](CO)[C@@H]1O2`, the activity change, negative = inhibition is -10.4% (inactive).

Regarding `CN(C)c1ccc2c(c1)[C@@H]1C[C@@H](CC(=O)NCc3cccc(F)c3)O[C@@H](CO)[C@@H]1O2`, the activity change, negative = inhibition was -9.54% (inactive).

As for `CN(C)c1ccc2c(c1)[C@@H]1C[C@@H](CC(=O)N3CCc4ccccc4C3)O[C@@H](CO)[C@@H]1O2`, the activity change, negative = inhibition was -1.46% (inactive).

On to `COCCNC(=O)C[C@H]1CC[C@@H]2[C@H](COc3ccc(NC(=O)c4cc(C)on4)cc3C(=O)N2C)O1`, for which the activity change, negative = inhibition was -8.48% (inactive).

Turning to `CN(C)c1ccc2c(c1)[C@@H]1C[C@@H](CC(=O)NC3CCCCC3)O[C@@H](CO)[C@@H]1O2`, the activity change, negative = inhibition is -7.37% (inactive).

Consider `CN(C)c1ccc2c(c1)[C@@H]1C[C@@H](CC(=O)NCC3CC3)O[C@@H](CO)[C@@H]1O2`, for which the activity change, negative = inhibition is -0.472% (inactive).

On to `COCCNC(=O)C[C@@H]1C[C@H]2c3cc(N(C)C)ccc3O[C@H]2[C@H](CO)O1`, for which the activity change, negative = inhibition is -5.65% (inactive).

Turning to `CCNC(=O)C[C@H]1CC[C@@H]2[C@H](COc3ccc(NC(=O)c4cc(C)on4)cc3C(=O)N2C)O1`, the activity change, negative = inhibition is -0.229% (inactive).

For `O=C(C[C@@H]1C[C@H]2c3cc(NS(=O)(=O)c4ccc(F)cc4)ccc3O[C@H]2[C@H](CO)O1)NCc1ccc(Oc2ccccc2)cc1`, the activity change, negative = inhibition was -4.18% (inactive).

The experiment is the same for the next values; noted with them: HEK293 TNFa-induced NF-kB eGFP reporter, flow cytometry, 16 h; at 21 µM (top of the series).
Take `Cc1cc(C(=O)Nc2ccc3c(c2)C(=O)N(C)[C@@H]2CC[C@H](CC(=O)N[C@@H](C)c4ccccc4)O[C@H]2CO3)no1`: the activity change, negative = inhibition was -5.47% (inactive).

Take `Cc1cc(C(=O)Nc2ccc3c(c2)C(=O)N(C)[C@@H]2CC[C@H](CC(=O)NCc4ccc(-c5ccccc5)cc4)O[C@@H]2CO3)no1`: the activity change, negative = inhibition was -0.92% (inactive).

A further experiment relates to HEK293 TNFa-induced NF-kB eGFP reporter, flow cytometry, 16 h. Described as above.
Conditions: not given
For the compound `CN(C)c1ccc2c(c1)[C@@H]1C[C@@H](CC(=O)N3CCOCC3)O[C@@H](CO)[C@@H]1O2`, the AC35 was 1.95 µM.

`Nc1ccn([C@@H]2O[C@H](CO)[C@@H](O)C2O)c(=O)n1` (some centres not stated): the AC35 is 7.24 µM.

Take `O=C(C[C@@H]1C[C@H]2c3cc(NC(=O)C4CCOCC4)ccc3O[C@H]2[C@H](CO)O1)NCc1ccc(Oc2ccccc2)cc1`: the AC35 is 16.4 µM.

For `Cc1cc(C(=O)Nc2ccc3c(c2)C(=O)N(C)[C@@H]2CC[C@H](CC(=O)NC4CCCC4)O[C@H]2CO3)no1`, the AC35 was 10 µM.

Consider `COc1ccccc1[C@]1(C)ON(c2ccccc2C(F)(F)F)C1=O`, for which the AC35 is 10.6 µM.

With `O=C(Nc1ccc(C(F)(F)F)cc1)Nc1ccc2c(c1)[C@H]1C[C@@H](CC(=O)N3CCc4ccccc4C3)O[C@@H](CO)[C@H]1O2`, the AC35 is 15.8 µM.

With `O=C(C[C@@H]1C[C@H]2c3cc(NC(=O)Nc4ccccc4F)ccc3O[C@H]2[C@H](CO)O1)NCc1ccc(Oc2ccccc2)cc1`, the AC35 is 16.2 µM.

For `CS(=O)(=O)Nc1ccc2c(c1)[C@@H]1C[C@@H](CC(=O)NCc3ccc(Oc4ccccc4)cc3)O[C@@H](CO)[C@@H]1O2`, the AC35 is 0.623 µM.

For the compound `CN(C)c1ccc2c(c1)[C@@H]1C[C@@H](CC(=O)NCc3cc(F)ccc3F)O[C@@H](CO)[C@@H]1O2`, the AC35 was 1.41 µM.

`O=C(C[C@@H]1C[C@H]2c3cc(NC(=O)NC4CCCC4)ccc3O[C@H]2[C@H](CO)O1)NCc1ccc(Oc2ccccc2)cc1`: the AC35 is 8.04 µM.

For the compound `Cc1cc(C(=O)Nc2ccc3c(c2)C(=O)N(C)[C@@H]2CC[C@H](CC(=O)N[C@H](C)c4ccccc4)O[C@H]2CO3)no1`, the AC35 is 18.1 µM.

`CN1C(=O)c2cc(NC(=O)Nc3ccccc3F)ccc2OC[C@@H]2O[C@@H](CC(=O)NCc3ccc(-c4ccccc4)cc3)CC[C@H]21`: the AC35 was 0.161 µM.
